From paper PMC6925601 (European journal of medicinal chemistry, 2019)

Assays:
U936 = assay: Anticancer cell cytotoxicity assay; type: cell-based; conditions: Homo sapiens, 24 h, read-out: U936 IC50 (μM)
MKK7 = target: T1, MKK7 (Homo sapiens, UniProt O14733); assay: KINOMEscan kinase binding assay; conditions: for Kd (μM) vs MKK7: KINOMEscan, duplicate, maximum concentration 30 μM
T1 sequence (O14733 1-419): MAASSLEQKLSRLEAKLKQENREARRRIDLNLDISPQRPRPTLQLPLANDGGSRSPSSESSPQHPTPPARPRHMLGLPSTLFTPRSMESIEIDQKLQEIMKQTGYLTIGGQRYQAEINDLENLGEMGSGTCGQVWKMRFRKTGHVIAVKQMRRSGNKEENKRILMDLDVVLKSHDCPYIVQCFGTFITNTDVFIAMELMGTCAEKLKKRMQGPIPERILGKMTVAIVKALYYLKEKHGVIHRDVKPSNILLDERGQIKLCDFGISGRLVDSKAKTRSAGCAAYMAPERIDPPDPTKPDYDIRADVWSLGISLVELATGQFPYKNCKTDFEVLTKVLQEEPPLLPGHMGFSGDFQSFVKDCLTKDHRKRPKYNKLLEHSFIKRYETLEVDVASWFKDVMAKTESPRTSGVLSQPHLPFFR

[1] = test system: SW-982 synovial sarcoma cells; assay: Anticancer cell cytotoxicity assay; type: cell-based; conditions: Homo sapiens, SW982, 24 h, read-out: SW-982 IC50 (μM)
[2] = test system: LS174T colorectal adenocarcinoma cells; assay: Anticancer cell cytotoxicity assay; type: cell-based; conditions: Homo sapiens, 24 h, read-out: LS174T IC50 (μM)
[3] = test system: nine tumor cell lines and primary PBMCs; assay: Cytotoxicity across the panel of nine tumor cell lines and PBMCs; type: cell-based, human; conditions: 24 h; for cytotoxicity toward tumor cell lines and PBMCs (in words): up to 50 μM
[4] = test system: primary peripheral blood mononuclear cells (PBMCs); assay: Cytotoxicity assay; type: cell-based; conditions: Homo sapiens, PBMC, 24 h, read-out: PBMCs IC50 (μM)
[5] = test system: MCF7 breast adenocarcinoma cells; assay: Anticancer cell cytotoxicity assay; type: cell-based; conditions: Homo sapiens, MCF7, 24 h, read-out: MCF7 IC50 (μM)
[6] = test system: A549 lung carcinoma cells; assay: Anticancer cell cytotoxicity assay; type: cell-based; conditions: Homo sapiens, A549, 24 h, read-out: A549 IC50 (μM)
Jurkat T cells = assay: Anticancer cell cytotoxicity assay; type: cell-based; conditions: Homo sapiens, 24 h, read-out: Jurkat IC50 (μM)
[7] = target: T2, human neutrophil elastase (HNE) (Homo sapiens, UniProt P08246); assay: HNE inhibitory assay; type: biochemical
T2 sequence (P08246 30-247 limits assumed): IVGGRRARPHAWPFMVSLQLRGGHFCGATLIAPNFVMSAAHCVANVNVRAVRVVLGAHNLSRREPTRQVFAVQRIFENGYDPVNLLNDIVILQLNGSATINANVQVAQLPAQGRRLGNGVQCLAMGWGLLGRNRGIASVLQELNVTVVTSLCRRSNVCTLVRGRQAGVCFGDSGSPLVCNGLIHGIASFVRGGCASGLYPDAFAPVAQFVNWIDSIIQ

[8] = test system: THP-1 monocytic leukemia cells; assay: Anticancer cell cytotoxicity assay; type: cell-based; conditions: Homo sapiens, THP-1, 24 h, read-out: THP-1 IC50 (μM)
[9] = test system: MonoMac6 monocytic leukemia cells; assay: Anticancer cell cytotoxicity assay; type: cell-based; conditions: Homo sapiens, MONO-MAC-6, 24 h, read-out: MonoMac6 IC50 (μM)
[10] = test system: HL60 promyelocytic leukemia cells; assay: Anticancer cell cytotoxicity assay; type: cell-based; conditions: Homo sapiens, HL-60, 24 h, read-out: HL60 IC50 (μM)
MKK4 = target: T3, MKK4 (Homo sapiens, UniProt P45985); assay: KINOMEscan kinase binding assay; conditions: KINOMEscan; data not shown
T3 sequence (P45985 1-399): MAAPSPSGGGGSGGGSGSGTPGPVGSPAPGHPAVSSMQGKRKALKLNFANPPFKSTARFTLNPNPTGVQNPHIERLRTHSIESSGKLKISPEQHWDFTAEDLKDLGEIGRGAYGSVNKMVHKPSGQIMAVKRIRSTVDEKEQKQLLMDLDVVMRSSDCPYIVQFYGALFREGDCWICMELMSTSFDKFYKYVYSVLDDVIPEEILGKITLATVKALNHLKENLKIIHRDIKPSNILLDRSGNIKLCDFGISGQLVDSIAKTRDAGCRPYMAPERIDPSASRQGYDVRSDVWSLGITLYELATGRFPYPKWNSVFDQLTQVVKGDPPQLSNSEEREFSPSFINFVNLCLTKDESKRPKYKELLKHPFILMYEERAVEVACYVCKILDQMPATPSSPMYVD

Cdc25A = target: T4, Cdc25A (Homo sapiens, UniProt P30304); assay: CycLex Cdc25A fluorometric phosphatase inhibition assay; type: biochemical
T4 sequence (P30304 1-524): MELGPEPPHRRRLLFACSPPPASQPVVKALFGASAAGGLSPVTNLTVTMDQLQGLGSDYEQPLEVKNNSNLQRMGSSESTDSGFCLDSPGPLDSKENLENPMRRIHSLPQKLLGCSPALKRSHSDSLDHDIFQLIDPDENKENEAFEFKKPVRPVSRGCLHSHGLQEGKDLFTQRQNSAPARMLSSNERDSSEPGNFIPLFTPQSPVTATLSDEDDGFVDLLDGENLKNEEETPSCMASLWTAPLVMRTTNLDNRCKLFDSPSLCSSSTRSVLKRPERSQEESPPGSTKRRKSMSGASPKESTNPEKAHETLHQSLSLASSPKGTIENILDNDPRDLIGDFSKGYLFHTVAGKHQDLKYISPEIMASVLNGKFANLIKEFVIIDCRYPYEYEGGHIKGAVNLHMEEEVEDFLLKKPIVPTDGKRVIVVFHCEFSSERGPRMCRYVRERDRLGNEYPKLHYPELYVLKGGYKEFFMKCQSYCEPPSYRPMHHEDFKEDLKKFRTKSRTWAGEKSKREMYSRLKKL

Cdc25B = target: T5, Cdc25B (Homo sapiens, UniProt P30305); assay: CycLex Cdc25B fluorometric phosphatase inhibition assay; type: biochemical
T5 sequence (P30305 1-580): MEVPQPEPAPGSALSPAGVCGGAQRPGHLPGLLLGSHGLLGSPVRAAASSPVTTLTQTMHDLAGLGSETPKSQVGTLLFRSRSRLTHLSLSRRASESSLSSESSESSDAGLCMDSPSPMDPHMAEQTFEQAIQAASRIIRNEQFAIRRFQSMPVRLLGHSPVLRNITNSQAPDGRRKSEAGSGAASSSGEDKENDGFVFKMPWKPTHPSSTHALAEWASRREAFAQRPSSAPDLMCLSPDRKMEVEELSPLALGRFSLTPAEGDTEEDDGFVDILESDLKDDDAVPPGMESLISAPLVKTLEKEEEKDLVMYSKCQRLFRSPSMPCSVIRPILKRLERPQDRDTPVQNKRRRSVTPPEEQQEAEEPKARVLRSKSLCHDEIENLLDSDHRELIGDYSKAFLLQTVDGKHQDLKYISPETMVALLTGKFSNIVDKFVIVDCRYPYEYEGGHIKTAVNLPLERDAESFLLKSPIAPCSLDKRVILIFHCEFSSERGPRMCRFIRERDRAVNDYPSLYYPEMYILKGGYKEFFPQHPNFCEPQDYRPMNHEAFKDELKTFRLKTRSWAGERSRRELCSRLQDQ

Row | Structure (SMILES) | Kd (MKK7) | IC50 [7] | IC50 (Cdc25A) | Kd (μM) vs MKK7 (MKK7) | IC50 [1] | IC50 [2] | IC50 [4] | IC50 [6] | other results
1 | CC(C)=CCC1=C(O)C(=O)c2ccccc2C1=O [Compound 3, lapachol] | > 30 µM | > 50 µM |  | did not bind | > 50 µM | > 50 µM | > 50 µM | > 50 µM | IC50 (U936): > 50 µM; cytotoxicity toward tumor cell lines and PBMCs (in words) [3]: did not find any toxicity; IC50 [5]: > 50 µM; IC50 (Jurkat T cells): > 50 µM; IC50 [8]: > 50 µM; IC50 [9]: > 50 µM; IC50 [10]: > 50 µM
2 | O=C1C(SCCO)=C(SCCO)C(=O)c2ccccc21 [Compound 4, 2,3-bis-[(2-hydroxyethyl)thio]-1,4-naphthoquinone, reference compound] |  | > 50 µM |  | in the micromolar range |  |  |  |  | IC50 ([3]; Homo sapiens, PBMC, read-out: cytotoxic activity IC50 for most of the cell lines): < 10 µM; Kd for MKK4 (MKK4): No MKK4 binding affinity
3 | COC(=O)c1ccc(NC2=C(OC)C(=O)c3ccccc3C2=O)cc1 [Compound 25b, 4-(3-Methoxy-1,4-dioxo-1,4-dihydro-naphthalen-2-ylamino)-benzoic acid methyl ester] |  | > 50 µM | > 50 µM |  |  |  |  |  | IC50 (Cdc25B): > 50 µM

Further lines, with some results ahead:

Row | Kd (MKK7) | IC50 [7] | IC50 (Cdc25A) | Structure (SMILES) | Kd (μM) vs MKK7 (MKK7) | IC50 [1] | IC50 [2] | IC50 [4] | IC50 [6] | other results
4 | > 30 µM | > 50 µM |  | COc1ccc(OC)c2c1C(=O)C=C(SCCC(=O)O)C2=O [Compound 14, GN25] | inactive | > 50 µM | > 50 µM | > 50 µM | > 50 µM | cytotoxicity toward tumor cell lines and PBMCs (in words) [3]: weakly toxic or nontoxic; IC50 [5]: > 50 µM
5 |  | > 50 µM |  | COC1=C(C)C(=O)c2ccccc2C1=O [Compound 17] |  | > 50 µM | > 50 µM | > 50 µM | > 50 µM | 
6 | > 30 µM | > 50 µM | > 50 µM | CC(C)(C)[C@H]1CC[C@H](CC2=C(O)C(=O)c3ccccc3C2=O)CC1 [Compound 21, buparvaquone, reference compound] | did not bind |  |  |  |  | 
7 |  | > 50 µM | > 50 µM | O=C1C(Cl)=C(NCCCN2CCOCC2)C(=O)c2ccccc21 [Compound 24, 2-Chloro-3-(3-morpholin-4-yl-propylamino)-1,4-naphthoquinone] |  |  |  |  |  | IC50 (Cdc25B): > 50 µM; Cdc25B IC50 (μM) (Cdc25B; recombinant Cdc25B, OMFP substrate, 25 °C): inactive; Cdc25A IC50 (μM) (Cdc25A; recombinant Cdc25A, OMFP substrate, 25 °C): inactive
